Assay results: PMC7265341, “Quantifying CDK inhibitor selectivity in live cells” (Nature Communications, 2020)
Read-outs that look alike come from different tables or passages of the source.

Experiments:
[1] = target: CDK1/Cyclin E1 (Homo sapiens, UniProt P06493); experiment: NanoBRET live-cell target engagement, CDK1-NanoLuc/Cyclin E1 in HEK-293; format: binding; settings: CDK1/E1; for IC50: read-out: IC50
[2] = target: CDK2/Cyclin E1 (Homo sapiens, UniProt P24941); experiment: NanoBRET live-cell target engagement, CDK2-NanoLuc/Cyclin E1 in HEK-293; format: binding; settings: CDK2/E1; for IC50: read-out: IC50
[3] = target: CDK3/Cyclin E1 (Homo sapiens, UniProt Q00526); experiment: NanoBRET live-cell target engagement, CDK3-NanoLuc/Cyclin E1 in HEK-293; format: binding; settings: CDK3/E1; for IC50: read-out: IC50
[4] = target: CDK4/Cyclin D1 (Homo sapiens, UniProt P11802); experiment: NanoBRET live-cell target engagement, NanoLuc-CDK4/Cyclin D1 in HEK-293; format: binding; settings: CDK4/D1
[5] = target: CDK5/CDK5R1 (Homo sapiens, UniProt Q00535); experiment: NanoBRET live-cell target engagement, CDK5-NanoLuc/CDK5R1 in HEK-293; format: binding; settings: CDK5/CDK5R1; for IC50: read-out: IC50
Chain of CDK5/CDK5R1 (Q00535 whole entry): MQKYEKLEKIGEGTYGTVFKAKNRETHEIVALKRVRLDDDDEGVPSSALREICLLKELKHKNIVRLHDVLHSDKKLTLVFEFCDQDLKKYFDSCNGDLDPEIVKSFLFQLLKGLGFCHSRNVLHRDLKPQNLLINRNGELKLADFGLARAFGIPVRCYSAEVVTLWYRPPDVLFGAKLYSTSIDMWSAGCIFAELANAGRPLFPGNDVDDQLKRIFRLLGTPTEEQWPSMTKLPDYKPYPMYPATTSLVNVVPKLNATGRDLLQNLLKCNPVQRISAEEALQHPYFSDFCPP
Chain of CDK5/CDK5R1 (Q15078 whole entry partner): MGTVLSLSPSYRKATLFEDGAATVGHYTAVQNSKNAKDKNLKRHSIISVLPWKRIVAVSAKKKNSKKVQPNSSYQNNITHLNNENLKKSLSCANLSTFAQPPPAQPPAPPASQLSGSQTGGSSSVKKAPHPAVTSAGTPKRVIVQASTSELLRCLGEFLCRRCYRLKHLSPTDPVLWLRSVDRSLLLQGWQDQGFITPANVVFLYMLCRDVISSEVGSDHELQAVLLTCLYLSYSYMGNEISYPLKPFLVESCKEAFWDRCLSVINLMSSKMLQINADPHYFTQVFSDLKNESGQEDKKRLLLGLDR

[6] = target: CDK6/Cyclin D1 (Homo sapiens, UniProt Q00534); experiment: NanoBRET live-cell target engagement, NanoLuc-CDK6/Cyclin D1 in HEK-293; format: binding; settings: CDK6/D1
[7] = target: CDK7 (Homo sapiens, UniProt P50613); experiment: NanoBRET live-cell target engagement, NanoLuc-CDK7 in HEK-293; format: binding; settings: CDK7; for IC50: read-out: IC50
Chain of CDK7 (P50613 whole entry): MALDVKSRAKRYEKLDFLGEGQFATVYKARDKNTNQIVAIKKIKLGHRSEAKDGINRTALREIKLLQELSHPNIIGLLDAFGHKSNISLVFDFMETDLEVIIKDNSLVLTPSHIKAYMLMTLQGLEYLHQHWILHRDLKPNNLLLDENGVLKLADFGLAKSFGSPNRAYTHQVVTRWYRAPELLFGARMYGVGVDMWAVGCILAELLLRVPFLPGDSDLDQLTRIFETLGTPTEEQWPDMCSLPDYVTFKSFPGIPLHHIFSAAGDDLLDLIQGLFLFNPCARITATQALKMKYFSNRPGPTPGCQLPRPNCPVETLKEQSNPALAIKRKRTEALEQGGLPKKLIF

[8] = target: CDK8/Cyclin C (Homo sapiens, UniProt P49336); experiment: NanoBRET live-cell target engagement, NanoLuc-CDK8/Cyclin C in HEK-293; format: binding; settings: CDK8/C; for IC50: read-out: IC50
[9] = target: CDK9/Cyclin K (Homo sapiens, UniProt P50750); experiment: NanoBRET live-cell target engagement, NanoLuc-CDK9/Cyclin K in HEK-293; format: binding; settings: CDK9/K
[10] = target: CDK11B/Cyclin L2 (Homo sapiens, UniProt P21127); experiment: NanoBRET live-cell target engagement, CDK11B-NanoLuc/Cyclin L2 in HEK-293; format: binding; settings: CDK11b/L2
[11] = target: CDK12/Cyclin K (Homo sapiens, UniProt Q9NYV4); experiment: NanoBRET live-cell target engagement, CDK12-NanoLuc/Cyclin K in HEK-293; format: binding; settings: CDK12/K
[12] = target: CDK13/Cyclin K (Homo sapiens, UniProt Q14004); experiment: NanoBRET live-cell target engagement, CDK13-NanoLuc/Cyclin K in HEK-293; format: binding; settings: CDK13/K
Chain of CDK13/Cyclin K (O75909 whole entry): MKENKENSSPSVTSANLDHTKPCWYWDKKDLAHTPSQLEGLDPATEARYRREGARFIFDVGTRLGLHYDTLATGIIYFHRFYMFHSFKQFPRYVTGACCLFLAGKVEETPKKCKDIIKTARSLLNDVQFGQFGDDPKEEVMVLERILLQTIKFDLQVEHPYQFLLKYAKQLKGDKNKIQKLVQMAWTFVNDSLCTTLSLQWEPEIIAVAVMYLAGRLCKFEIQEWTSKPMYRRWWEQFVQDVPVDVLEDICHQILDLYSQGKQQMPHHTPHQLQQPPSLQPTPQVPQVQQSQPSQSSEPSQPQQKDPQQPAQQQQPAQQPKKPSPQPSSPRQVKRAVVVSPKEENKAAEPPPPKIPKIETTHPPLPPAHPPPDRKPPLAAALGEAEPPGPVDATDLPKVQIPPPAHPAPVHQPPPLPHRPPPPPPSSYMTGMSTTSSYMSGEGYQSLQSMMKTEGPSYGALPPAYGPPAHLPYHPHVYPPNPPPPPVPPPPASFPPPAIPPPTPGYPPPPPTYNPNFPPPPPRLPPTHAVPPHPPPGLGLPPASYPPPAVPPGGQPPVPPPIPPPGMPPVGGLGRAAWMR
Chain of CDK13/Cyclin K (Q14004 other isoform, or with tags, fused parts or gaps): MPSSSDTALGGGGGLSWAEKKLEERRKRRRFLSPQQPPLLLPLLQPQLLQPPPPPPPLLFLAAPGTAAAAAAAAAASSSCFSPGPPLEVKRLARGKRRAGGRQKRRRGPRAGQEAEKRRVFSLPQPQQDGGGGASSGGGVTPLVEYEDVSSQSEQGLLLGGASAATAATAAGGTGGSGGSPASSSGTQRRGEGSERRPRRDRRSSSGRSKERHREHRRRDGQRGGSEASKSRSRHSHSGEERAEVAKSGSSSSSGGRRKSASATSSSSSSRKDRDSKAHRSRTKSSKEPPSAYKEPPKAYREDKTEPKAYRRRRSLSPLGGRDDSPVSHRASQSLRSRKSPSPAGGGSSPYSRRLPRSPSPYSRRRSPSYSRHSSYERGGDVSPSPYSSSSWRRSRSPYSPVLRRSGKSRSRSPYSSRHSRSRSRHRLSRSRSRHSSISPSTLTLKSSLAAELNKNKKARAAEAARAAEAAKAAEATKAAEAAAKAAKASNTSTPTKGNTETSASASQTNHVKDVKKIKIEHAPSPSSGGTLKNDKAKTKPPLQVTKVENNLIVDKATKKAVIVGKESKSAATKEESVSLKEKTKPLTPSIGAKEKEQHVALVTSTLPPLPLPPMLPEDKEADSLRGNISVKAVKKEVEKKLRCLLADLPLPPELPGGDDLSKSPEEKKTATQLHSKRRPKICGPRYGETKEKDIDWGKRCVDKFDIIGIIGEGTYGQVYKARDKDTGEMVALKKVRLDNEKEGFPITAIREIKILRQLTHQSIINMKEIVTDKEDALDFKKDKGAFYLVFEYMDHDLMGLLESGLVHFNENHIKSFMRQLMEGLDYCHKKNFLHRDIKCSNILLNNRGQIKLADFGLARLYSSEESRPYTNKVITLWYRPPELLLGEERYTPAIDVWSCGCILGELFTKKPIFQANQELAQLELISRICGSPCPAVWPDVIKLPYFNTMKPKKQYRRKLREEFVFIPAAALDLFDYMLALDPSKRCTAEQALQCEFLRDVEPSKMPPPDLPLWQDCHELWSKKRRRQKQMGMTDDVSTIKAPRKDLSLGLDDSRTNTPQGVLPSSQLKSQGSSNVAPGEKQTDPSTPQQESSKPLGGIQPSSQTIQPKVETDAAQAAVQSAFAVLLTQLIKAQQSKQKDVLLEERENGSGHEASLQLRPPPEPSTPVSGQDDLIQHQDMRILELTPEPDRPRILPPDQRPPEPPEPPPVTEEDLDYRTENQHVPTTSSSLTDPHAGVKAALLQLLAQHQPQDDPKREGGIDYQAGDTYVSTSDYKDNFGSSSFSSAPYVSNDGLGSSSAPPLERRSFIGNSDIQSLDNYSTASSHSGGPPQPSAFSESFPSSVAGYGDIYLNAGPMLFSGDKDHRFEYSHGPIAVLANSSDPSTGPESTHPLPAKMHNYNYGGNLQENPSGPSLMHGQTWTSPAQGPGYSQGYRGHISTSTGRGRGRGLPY

[13] = target: CDK14/Cyclin Y (Homo sapiens, UniProt O94921); experiment: NanoBRET live-cell target engagement, CDK14-NanoLuc/Cyclin Y in HEK-293; format: binding; settings: CDK14/Y
Chain of CDK14/Cyclin Y (O94921 whole entry): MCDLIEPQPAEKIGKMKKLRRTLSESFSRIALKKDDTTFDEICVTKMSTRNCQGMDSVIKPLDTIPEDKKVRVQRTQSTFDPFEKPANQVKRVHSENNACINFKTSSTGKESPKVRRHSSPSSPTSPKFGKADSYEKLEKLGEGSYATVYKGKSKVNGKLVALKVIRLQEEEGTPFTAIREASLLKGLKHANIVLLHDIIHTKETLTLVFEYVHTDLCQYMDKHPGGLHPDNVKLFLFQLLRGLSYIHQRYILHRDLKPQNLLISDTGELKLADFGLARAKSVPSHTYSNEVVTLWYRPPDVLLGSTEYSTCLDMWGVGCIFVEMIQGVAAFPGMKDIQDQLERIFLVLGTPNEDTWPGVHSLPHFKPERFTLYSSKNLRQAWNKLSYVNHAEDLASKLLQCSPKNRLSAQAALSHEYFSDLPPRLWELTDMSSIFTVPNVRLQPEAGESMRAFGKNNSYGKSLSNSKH
Chain of CDK14/Cyclin Y (Q8ND76 whole entry partner): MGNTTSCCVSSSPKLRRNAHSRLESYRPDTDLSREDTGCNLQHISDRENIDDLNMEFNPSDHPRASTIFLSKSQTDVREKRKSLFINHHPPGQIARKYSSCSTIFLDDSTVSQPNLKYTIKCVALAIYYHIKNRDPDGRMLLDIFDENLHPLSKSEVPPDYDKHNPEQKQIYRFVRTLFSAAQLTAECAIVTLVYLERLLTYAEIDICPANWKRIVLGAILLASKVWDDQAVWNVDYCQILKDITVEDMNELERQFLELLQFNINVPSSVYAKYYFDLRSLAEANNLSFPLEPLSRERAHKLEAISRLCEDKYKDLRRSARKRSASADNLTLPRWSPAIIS

[14] = target: CDK15/Cyclin Y (Homo sapiens, UniProt Q96Q40); experiment: NanoBRET live-cell target engagement, NanoLuc-CDK15/Cyclin Y in HEK-293; format: binding; settings: CDK15/Y
[15] = target: CDK16/Cyclin Y (Homo sapiens, UniProt Q00536); experiment: NanoBRET live-cell target engagement, CDK16-NanoLuc/Cyclin Y in HEK-293; format: binding; settings: CDK16/Y
[16] = target: CDK17/Cyclin Y (Homo sapiens, UniProt Q00537); experiment: NanoBRET live-cell target engagement, CDK17-NanoLuc/Cyclin Y in HEK-293; format: binding; settings: CDK17/Y
[17] = target: CDK18/Cyclin Y (Homo sapiens, UniProt Q07002); experiment: NanoBRET live-cell target engagement, CDK18-NanoLuc/Cyclin Y in HEK-293; format: binding; settings: CDK18/Y
[18] = target: CDK20/Cyclin H (Homo sapiens, UniProt Q8IZL9); experiment: NanoBRET live-cell target engagement, NanoLuc-CDK20/Cyclin H in HEK-293; format: binding; settings: CDK20/H
[19] = target: CDK19/Cyclin C (Homo sapiens, UniProt Q9BWU1); experiment: NanoBRET live-cell target engagement, NanoLuc-CDK19/Cyclin C in HEK-293; settings: CDK19/C
Chain of CDK19/Cyclin C (Q9BWU1 whole entry): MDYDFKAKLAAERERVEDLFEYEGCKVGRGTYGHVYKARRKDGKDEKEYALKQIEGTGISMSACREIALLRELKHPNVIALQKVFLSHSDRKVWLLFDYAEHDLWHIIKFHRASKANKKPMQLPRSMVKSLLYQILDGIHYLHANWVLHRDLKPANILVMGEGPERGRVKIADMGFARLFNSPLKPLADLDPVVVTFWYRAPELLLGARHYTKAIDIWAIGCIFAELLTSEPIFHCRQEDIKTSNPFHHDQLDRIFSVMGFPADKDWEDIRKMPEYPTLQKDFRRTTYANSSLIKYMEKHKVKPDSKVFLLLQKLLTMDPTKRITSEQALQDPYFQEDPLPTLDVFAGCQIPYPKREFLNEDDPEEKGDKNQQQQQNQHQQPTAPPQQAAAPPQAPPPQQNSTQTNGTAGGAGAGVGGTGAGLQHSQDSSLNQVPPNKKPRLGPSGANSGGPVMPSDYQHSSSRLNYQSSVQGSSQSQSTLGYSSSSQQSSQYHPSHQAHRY
Chain of CDK19/Cyclin C (P24863 whole entry partner): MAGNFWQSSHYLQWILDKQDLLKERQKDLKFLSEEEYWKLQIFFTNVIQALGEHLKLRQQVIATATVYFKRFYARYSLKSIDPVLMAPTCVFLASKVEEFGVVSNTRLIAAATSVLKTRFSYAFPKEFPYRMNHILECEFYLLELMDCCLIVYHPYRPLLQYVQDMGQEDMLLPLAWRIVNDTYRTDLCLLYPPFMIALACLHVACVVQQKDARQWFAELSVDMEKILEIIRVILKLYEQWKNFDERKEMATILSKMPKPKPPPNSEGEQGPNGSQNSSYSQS

[20] = target: CDK10/Cyclin L2 (Homo sapiens, UniProt Q15131); experiment: NanoBRET live-cell target engagement, CDK10-NanoLuc/Cyclin L2 in HEK-293; settings: CDK10/L2
Chain of CDK10/Cyclin L2 (Q15131 whole entry): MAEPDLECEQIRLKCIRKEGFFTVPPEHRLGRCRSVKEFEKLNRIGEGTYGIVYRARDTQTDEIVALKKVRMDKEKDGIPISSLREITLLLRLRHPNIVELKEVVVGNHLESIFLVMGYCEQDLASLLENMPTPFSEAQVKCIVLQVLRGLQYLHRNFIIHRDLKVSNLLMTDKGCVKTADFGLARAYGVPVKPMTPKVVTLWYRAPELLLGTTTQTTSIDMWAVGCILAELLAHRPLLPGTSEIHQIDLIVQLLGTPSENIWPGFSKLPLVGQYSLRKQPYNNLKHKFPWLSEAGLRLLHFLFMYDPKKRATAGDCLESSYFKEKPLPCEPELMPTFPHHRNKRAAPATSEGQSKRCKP

SMILES: CCn1cnc2c(Nc3cccc(Cl)c3)nc(N[C@@H]3CCCC[C@@H]3N)nc21 [CGP74514A]
- Inhibition at 10µM (%) ([1]; average): 78.9%
- IC50 ([1]; average (± SEM where n=3)): 130 nM
- Inhibition at 10µM (%) ([1]; experiment 1): 77.7%
- IC50 ([1]; experiment 1): 100 nM
- Inhibition at 10µM (%) ([1]; experiment 2): 80.1%
- IC50 ([1]; experiment 2): 163 nM
- Inhibition at 10µM (%) ([2]; average): 94.2%
- IC50 ([2]; average (± SEM where n=3)): 62 nM
- Inhibition at 10µM (%) ([2]; experiment 1): 93.3%
- IC50 ([2]; experiment 1): 63 nM
- Inhibition at 10µM (%) ([2]; experiment 2): 95.2%
- IC50 ([2]; experiment 2): 60 nM
- Inhibition at 10µM (%) ([3]; average): 92.7%
- IC50 ([3]; average (± SEM where n=3)): 75 nM
- Inhibition at 10µM (%) ([3]; experiment 1): 92.6%
- IC50 ([3]; experiment 1): 39 nM
- Inhibition at 10µM (%) ([3]; experiment 2): 92.8%
- IC50 ([3]; experiment 2): 110 nM
- Inhibition at 10µM (%) ([4]; average): 72.2%
- Inhibition at 10µM (%) ([4]; experiment 1): 63.2%
- Inhibition at 10µM (%) ([4]; experiment 2): 81.2%
- Inhibition at 10µM (%) ([5]; average): 93.3%
- IC50 ([5]; average (± SEM where n=3)): 100 nM
- Inhibition at 10µM (%) ([5]; experiment 1): 90.4%
- IC50 ([5]; experiment 1): 74 nM
- Inhibition at 10µM (%) ([5]; experiment 2): 96.2%
- IC50 ([5]; experiment 2): 130 nM
- Inhibition at 10µM (%) ([6]; average): 58.7%
- Inhibition at 10µM (%) ([6]; experiment 1): 51.0%
- Inhibition at 10µM (%) ([6]; experiment 2): 66.5%
- Inhibition at 10µM (%) ([7]; average): 93.3%
- IC50 ([7]; average (± SEM where n=3)): 95 nM
- Inhibition at 10µM (%) ([7]; experiment 1): 96.5%
- IC50 ([7]; experiment 1): 100 nM
- Inhibition at 10µM (%) ([7]; experiment 2): 90.2%
- IC50 ([7]; experiment 2): 90 nM
- Inhibition at 10µM (%) ([8]; average): 3.2%
- IC50 ([8]; average (± SEM where n=3)): 260 nM
- Inhibition at 10µM (%) ([8]; experiment 1): 5.8%
- IC50 ([8]; experiment 1): 290 nM
- Inhibition at 10µM (%) ([8]; experiment 2): 0.659%
- IC50 ([8]; experiment 2): 230 nM
- Inhibition at 10µM (%) ([9]; average): 71.1%
- Inhibition at 10µM (%) ([9]; experiment 1): 68.0%
- Inhibition at 10µM (%) ([9]; experiment 2): 74.2%
- Inhibition at 10µM (%) ([10]; average): 21.5%
- Inhibition at 10µM (%) ([10]; experiment 1): 20.4%
- Inhibition at 10µM (%) ([10]; experiment 2): 22.7%
- Inhibition at 10µM (%) ([11]; average): 36.8%
- Inhibition at 10µM (%) ([11]; experiment 1): 42.2%
- Inhibition at 10µM (%) ([11]; experiment 2): 31.4%
- Inhibition at 10µM (%) ([12]; average): 35.2%
- Inhibition at 10µM (%) ([12]; experiment 1): 36.4%
- Inhibition at 10µM (%) ([12]; experiment 2): 33.9%
- Inhibition at 10µM (%) ([13]; average): 63.7%
- Inhibition at 10µM (%) ([13]; experiment 1): 59.7%
- Inhibition at 10µM (%) ([13]; experiment 2): 67.6%
- Inhibition at 10µM (%) ([14]; average): 85.2%
- Inhibition at 10µM (%) ([14]; experiment 1): 84.1%
- Inhibition at 10µM (%) ([14]; experiment 2): 86.4%
- Inhibition at 10µM (%) ([15]; experiment 1): 76.4%
- Inhibition at 10µM (%) ([15]; experiment 2): 76.7%
- Inhibition at 10µM (%) ([16]; average): 80.2%
- Inhibition at 10µM (%) ([16]; experiment 1): 79.4%
- Inhibition at 10µM (%) ([16]; experiment 2): 81.0%
- Inhibition at 10µM (%) ([17]; average): 86.9%
- Inhibition at 10µM (%) ([17]; experiment 1): 81.1%
- Inhibition at 10µM (%) ([17]; experiment 2): 92.6%
- Inhibition at 10µM (%) ([18]; experiment 1): 40.4%
- Inhibition at 10µM (%) ([18]; experiment 2): 47.3%
- Inhibition at 10µM (%) ([19]; average): 9.3%
- Inhibition at 10µM (%) ([19]; experiment 1): 26.1%
- Inhibition at 10µM (%) ([19]; experiment 2): -7.5%
- Inhibition at 10µM (%) ([20]; average): 40.2%
- Inhibition at 10µM (%) ([20]; experiment 1): 37.4%
- Inhibition at 10µM (%) ([20]; experiment 2): 42.9%
